biological target: T1, BTK (Homo sapiens, UniProt Q06187); experiment: In vitro BTK kinase assay (BTK-POLYGAT-LS); type: biochemical; settings: IC50 (10 uM ATP)
T1 construct: purchased Upstate 14-552
Protocol: In vitro BTK Kinase Assay
The purpose of the BTK in vitro assay is to determine compound potency against BTK through the measurement of IC50. […] For a typical assay, a 24 μL aliquot of a ATP/peptide master mix (final concentration; ATP 10 μM, polyGAT 100 nM) in kinase buffer (10 mM Tris-HCl pH 7.5, 10 mM MgCl2, 200 μM Na3PO4, 5 mM DTT, 0.01% Triton X-100, and 0.2 mg/ml casein) is added to each well. […] The assay is incubated for 30 minutes before being stopped with 28 μL of a 50 mM EDTA solution. […] The plate is covered and incubated for 45 minutes at room temperature.

T1 sequence (Q06187 whole entry): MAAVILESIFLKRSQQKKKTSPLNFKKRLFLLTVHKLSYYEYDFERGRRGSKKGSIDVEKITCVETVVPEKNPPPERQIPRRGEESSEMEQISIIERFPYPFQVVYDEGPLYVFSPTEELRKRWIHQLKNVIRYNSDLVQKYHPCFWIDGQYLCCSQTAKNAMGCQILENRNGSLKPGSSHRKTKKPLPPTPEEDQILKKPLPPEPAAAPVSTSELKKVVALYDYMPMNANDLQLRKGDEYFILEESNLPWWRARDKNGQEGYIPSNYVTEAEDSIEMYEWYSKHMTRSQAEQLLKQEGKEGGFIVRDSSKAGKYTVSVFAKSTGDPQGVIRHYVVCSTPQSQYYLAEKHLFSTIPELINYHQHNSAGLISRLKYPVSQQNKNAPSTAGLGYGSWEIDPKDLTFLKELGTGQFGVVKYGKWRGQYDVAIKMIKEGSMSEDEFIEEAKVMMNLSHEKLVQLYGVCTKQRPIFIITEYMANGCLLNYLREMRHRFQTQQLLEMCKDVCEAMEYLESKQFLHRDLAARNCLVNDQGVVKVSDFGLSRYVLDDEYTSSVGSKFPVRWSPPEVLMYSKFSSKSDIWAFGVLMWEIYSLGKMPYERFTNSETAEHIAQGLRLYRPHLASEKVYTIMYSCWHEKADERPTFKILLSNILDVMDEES

| SMILES | IC50 [µM] |
| --- | --- |
| O=C1CCc2c(ncnc2N2CCC3CCN(C(=O)CNc4cc(Cl)cc(Cl)c4)CC32)N1 (centres unmarked) [Compound 156] | 1 to 10 |
| O=C(CNc1cc(Cl)cc(Cl)c1)N1CCC[C@H](Nc2cc(Br)ncc2[N+](=O)[O-])C1 [Compound 136] | > 10 |
| O=C(CNc1cc(Cl)cc(Cl)c1)N1CCC[C@@H](Nc2ncnc3[nH]cnc23)C1 [Compound 10] | 1 to 10 |
| O=C(CNc1cc(C(F)(F)F)cc(C(F)(F)F)c1)N1CCC[C@H](Nc2ncnc3[nH]ncc23)C1 [Compound 186] | > 10 |
| CN(c1ncnc(N)c1C#N)[C@H]1CCCN(C(=O)CNc2cc(Cl)cc(Cl)c2)C1 [Compound 116] | > 10 |
| O=C(CNc1cc(Cl)cc(Cl)c1)N1CC[C@H](Nc2ncnc3[nH]ccc23)C1 [Compound 152] | > 10 |
| CCC1C(Nc2ncnc(N)c2F)CCCN1C(=O)CNc1cc(F)cc(Cl)c1 (centres unmarked) [Compound 5] | 1 to 10 |
| CCC[C@@H](Nc1cc(Cl)cc(Cl)c1)C(=O)N1CCCC(Nc2ncnc3[nH]ccc23)C1C (some centres unmarked) [Compound 64] | < 0.1 |
| O=C(CNc1cc(Cl)cc(C(F)(F)F)c1)N1CCC[C@H](Nc2ncnc3[nH]ncc23)C1 [Compound 178] | 1 to 10 |
| O=C(CNc1cc(C(F)(F)F)cc(C(F)(F)F)c1)N1CCC[C@H](Nc2ncnc3[nH]ncc23)C1 [Compound 185] | 1 to 10 |
| Nc1nccc(N[C@H]2CCCN(C(=O)CNc3cc(Cl)cc(Cl)c3)C2)n1 [Compound 164] | > 10 |
| O=C1CCc2c(ncnc2N[C@H]2CCCN(C(=O)CNc3cc(Cl)cc(Cl)c3)C2)N1 [Compound 154] | > 10 |
| COc1c(N)ncnc1N[C@H]1CCCN(C(=O)CNc2cc(Cl)cc(Cl)c2)C1 [Compound 168] | > 10 |
| O=C(CNc1cc(Cl)cc(Cl)c1)N1CCC2CCN(c3ncnc4[nH]cnc34)C2C1 (centres unmarked) [Compound 111] | < 0.1 |
| O=C([C@H](Nc1cc(F)cc(Cl)c1)C1CC1)N1CCC[C@H](Nc2ncnc3[nH]ncc23)C1 [Compound 223] | 1 to 10 |
| O=C([C@H](Nc1cc(Cl)cc(Cl)c1)C1CC1)N1CCC[C@@H](Nc2ncnc3[nH]ccc23)C1 [Compound 207] | 0.1 to 0.999 |
| NC(=O)c1cnc2[nH]ccc2c1NC1CCCN(C(=O)CNc2cc(F)cc(Cl)c2)C1 (centres unmarked) [Compound 229] | < 0.1 |
| Nc1ncnc(N[C@@H]2CCCN(C(=O)CNc3cc(Cl)cc(Cl)c3)C2)c1Cl [Compound 8] | 1 to 10 |
| CC(=O)Nc1cc(NC2CCCN(C(=O)CNc3cc(Cl)cc(Cl)c3)C2)ncn1 (centres unmarked) [Compound 85] | 1 to 10 |
| Nc1ncnc(N2CCC3CCN(C(=O)CNc4cc(Cl)cc(Cl)c4)CC32)c1F (centres unmarked) [Compound 112] | < 0.1 |

| SMILES | IC50 [µM] |
| --- | --- |
| CN(c1ncnc2[nH]ccc12)C1CC2CC1N(C(=O)CNc1cc(Cl)cc(Cl)c1)C2 (centres unmarked) [Compound 163] | 1 to 10 |
| O=C(CNc1ccc(C(F)(F)F)cc1)N1CCC[C@H](Nc2ncnc3[nH]ccc23)C1 [Compound 204] | > 10 |
| O=C(CNc1cc(Cl)cc(Cl)c1)N1CCC[C@@H](Nc2ncnc3[nH]ccc23)[C@H]1C(F)(F)F [Compound 12] | < 0.1 |
| CC1CCCCC1NCC(=O)N1CCC[C@H](Nc2ncnc3[nH]ccc23)C1 (some centres unmarked) [Compound 140] | > 10 |
| CN(c1cc(N)ncn1)[C@H]1CCCN(C(=O)CNc2cc(Cl)cc(Cl)c2)C1 [Compound 144] | > 10 |
| NC(=O)c1c(N)ncnc1NC1CCCN(C(=O)CNc2cc(Cl)cc(Cl)c2)C1 (centres unmarked) [Compound 82] | > 10 |
| O=C(CNc1cc(Cl)cc(Cl)c1)N1CC[C@@H](Nc2ncnc3[nH]ccc23)C1 [Compound 155] | > 10 |
| O=C(CNc1cc(Cl)cc(Cl)c1)N1CCC[C@@H](N(CCO)c2ncnc3[nH]ccc23)C1 [Compound 35] | < 0.1 |
| Nc1cc(N[C@H]2CCCN(C(=O)CNc3cc(Cl)cc(Cl)c3)C2)ncn1 [Compound 133] | 1 to 10 |
| O=C(CNc1cc(Cl)cc(Cl)c1)N1CCC[C@H](N(CCc2ccccc2)c2ncnc3[nH]ccc23)C1 [Compound 119] | > 10 |
| CN(c1ncnc2[nH]ccc12)C1CCCN(C(=O)CNc2cc(Cl)cc(C(F)(F)F)c2)C1C(F)(F)F (centres unmarked) [Compound 13] | < 0.1 |
| Nc1ncnc2c1ccn2C1CCCN(C(=O)CNc2cc(Cl)cc(Cl)c2)C1 (centres unmarked) [Compound 231] | 1 to 10 |
| CN(c1ncnc2[nH]ncc12)[C@@H]1CCN(C(=O)CNc2cc(Cl)cc(Cl)c2)C1 [Compound 131] | 1 to 10 |
| O=C([C@H](Nc1cc(Cl)cc(Cl)c1)C1CC1)N1CCC[C@H](Nc2ncnc3[nH]ccc23)C1 [Compound 206] | 1 to 10 |
| Nc1ncnc(N[C@H]2CCCN(C(=O)CNc3cc(Cl)cc(Cl)c3)C2)c1F [Compound 110] | 0.1 to 0.999 |
| CNc1cc(NC2CCCN(C(=O)CNc3cc(Cl)cc(Cl)c3)C2)ncn1 (centres unmarked) [Compound 83] | 0.1 to 0.999 |
| Nc1ncnc(N[C@H]2CCCN(C(=O)CNc3cc(Cl)cc(Cl)c3)C2)c1Cl [Compound 134] | > 10 |
| CN(c1ncnc2[nH]ccc12)C1CCCN(C(=O)CNc2cccc(Cl)c2)C1C(F)(F)F (centres unmarked) [Compound 16] | < 0.1 |
| CN(c1ncnc(N)c1C(N)=O)[C@H]1CCCN(C(=O)CNc2cc(Cl)cc(Cl)c2)C1 [Compound 125] | > 10 |

Now from value to molecule:

| IC50 [µM] | SMILES |
| --- | --- |
| < 0.1 | CC1C(Nc2ncnc3[nH]ccc23)CCCN1C(=O)CNc1ccccc1S(=O)(=O)C1CCCC1 (centres unmarked) [Compound 73] |
| < 0.1 | O=C(CNc1cc(Cl)cc(Cl)c1)N1CCCC(Nc2ncnc3[nH]ccc23)C1C1CCCC1 (centres unmarked) [Compound 33] |
| < 0.1 | C[C@@H]1C[C@H](Nc2ncnc3[nH]ncc23)CN(C(=O)CNc2cc(Cl)cc(Cl)c2)C1 [Compound 103] |
| < 0.1 | CCC1C(Nc2ncnc3[nH]ncc23)CCCN1C(=O)CNc1cc(F)cc(Cl)c1 (centres unmarked) [Compound 4] |
| < 0.1 | C[C@H]1[C@@H](Nc2ncnc3[nH]ncc23)CCCN1C(=O)CNc1cc(Cl)cc(Cl)c1 [Compound 31] |
| < 0.1 | CC1C(Nc2ncnc3[nH]ccc23)CCCN1C(=O)CNc1cc(Cl)cc(C(F)(F)F)c1 (centres unmarked) [Compound 80] |
| 1 to 10 | O=C(CNc1ccccc1)N1CCCC(Nc2ncnc3[nH]ncc23)C1 (centres unmarked) [Compound 179] |
| > 10 | O=C(CNc1ccccc1S(=O)(=O)N1CCCCC1)N1CCC[C@H](Nc2ncnc3[nH]ccc23)C1 [Compound 138] |
| < 0.1 | CC1C(Nc2ncnc(N)c2F)CCCN1C(=O)CNc1cc(Cl)cc(Cl)c1 (centres unmarked) [Compound 62] |
| < 0.1 | C[C@@H]1[C@H](Nc2ncnc3[nH]ncc23)CCCN1C(=O)CNc1ccccc1S(=O)(=O)N1CCCCC1 [Compound 22] |
| < 0.1 | CC1C(Nc2ncnc3[nH]ccc23)CCCN1C(=O)CNc1ccccc1S(=O)(=O)c1ccccc1 (centres unmarked) [Compound 75] |
| < 0.1 | CC1C(Nc2ncnc3[nH]ncc23)CCCN1C(=O)CNc1ccccc1S(=O)(=O)c1ccccc1 (centres unmarked) [Compound 63] |
| > 10 | O=C(CNc1ccccc1C(F)(F)F)N1CCC[C@H](Nc2ncnc3[nH]ncc23)C1 [Compound 195] |
| > 10 | O=C(CNc1ccc(F)cc1)N1CCC[C@H](Nc2ncnc3[nH]ncc23)C1 [Compound 205] |
| < 0.1 | CC1C(Nc2ncnc3[nH]ncc23)CCCN1C(=O)CNc1ccccc1S(=O)(=O)N1CCCC1 (centres unmarked) [Compound 70] |
| > 10 | O=C(CNc1ccccc1Cl)N1CCC[C@H](Nc2ncnc3[nH]ncc23)C1 [Compound 202] |
| > 10 | CC(C)CN(CC(C)C)S(=O)(=O)c1ccccc1NCC(=O)N1CCC[C@H](Nc2ncnc3[nH]ccc23)C1 [Compound 219] |

— US9273028B2, “Heterocyclic tyrosine kinase inhibitors” (Biogen MA Inc., priority 2010, dated 2016)
